Columns and labels:
[1] = Ex-vivo contrast-enhanced MRI (3 Tesla, T1 inversion recovery) measurement of gadodiamide partition coefficient / relative distribution volume in postmortem myocardium samples; assay type: in vitro ADME, human; details: 24 hours incubation in ~3 mM gadodiamide-saline solution
Method: As an example of the above-described methodology, eight samples of human myocardium were obtained postmortem and a fast spin-echo sequence (3 Tesla) with non-slice selective inversion pulse performed before and after immersion in a gadodiamide saline solution for determination of the gadodiamide partition coefficient. T1 values were calculated from the inversion recovery signal curves. The same samples were fixed in formalin, and the collagen volume fraction was determined by the picrosirius red method using a semi-automated, polarized, digital microscopy system. […] Moreover, there was a significant positive correlation between the two methods, across all three histological categories of myocardial fibrosis (r=0.73; p=0.017). Thus, these findings indicate an expanded potential for contrast enhanced MRI as a novel, non-invasive alternative to histological evaluation, for the quantification of both interstitial and replacement myocardial fibrosis.
In accordance with an exemplary embodiment as outlined briefly above, eight samples of myocardium were obtained from deceased patients. Each sample of ventricular myocardium was 1 to 2 cm in thickness, and cut at the mid-level of the ventricular septum to include left and right ventricular free walls. All samples were stored at −80° C. until time of analysis.
A pre-contrast MRI was performed approximately 10-12 hours after thawing each sample. […] The longitudinal relaxation time T1 of myocardial tissue and saline was measured with a spin-echo MRI pulse sequence with non-slice-selective inversion pulse, and for 12-15 inversion delays (inversion times in the range from T1=50 to 2000 ms). […]
After the first MRI scan, the sample was incubated at 3-4° C. in a gadodiamide—saline solution for 24 hours (initial gadodiamide concentration in saline before immersion of tissue slice was ˜3 mM; saline R1 at 3 Tesla after 24 hours incubation: 3.9±0.3 s^−1). […] The effects of duration of thawing were also evaluated. […] Accordingly, these two sets of samples with different durations of thawing were analyzed separately. […]

[2] = at 37° C.; cited from earlier work

For `CNC(=O)CN(CCN(CCN(CC(=O)[O-])CC(=O)NC)CC(=O)[O-])CC(=O)[O-].[Gd+3]` [gadodiamide], the “mean gadodiamide distribution volume (with 95% confidence interval)” value ([1]; interstitial fibrosis myocardium) was 0.43+/−0.22, the “mean gadodiamide distribution volume (with 95% confidence interval)” value ([1]; normal myocardium) was 0.17+/−0.05 and the “mean gadodiamide distribution volume (with 95% confidence interval)” value ([1]; replacement fibrosis myocardium) was 0.46+/−0.05. The osmolality [2] was 789 mOsmol/kg water.

— US10076246B2, “Method and apparatus for noninvasive quantitative detection of fibrosis in normal and viable myocardium by MRI” (Oregon Health & Science University, priority 2007, dated 2018)
